Holding throughout (assay type): in vivo, Sprague-Dawley rats
The test system of assay [1] is tibialis anterior muscle. The assay can be described thus: Electrophysiological tests (H/M ratio, motor evoked potentials) after spinal cord contusion. As to the method: (§1) Adult females Sprague-Dawley rats aged 11 weeks (220-250 g) were anesthetized with pentobarbital (40 mg/kg i.p.). When unresponsive, the vertebral column was exposed and a laminectomy carried out at T8-T9 levels. Rostral T7 and caudal T10 vertebral bodies were clamped with Adson stabilizing forceps, and carefully adjusted to level the spinal cord in the horizontal plane. A contusion injury was performed using the Infinite Horizon impactor device (Precision Scientific Instruments, Lexington, KY). The stainless steel impounder tip was placed at 3-4 mm above the exposed spinal cord, and then a fast impact produced applying forces of 150 or 250 kilodynes (KDyn) to the exposed spinal cord. The wound was sutured with 5-0 silk thread in the muscular plane and the skin was closed with small clips and disinfected with povidone iodine solution. Sham-operated animals received the same surgical procedure but sustained no impact injury; the spinal cord was left exposed for 5 min. The animals were maintained in a warm environment until full recovery, and received preventive antibiotic (amoxicyline) and analgesic (buprenorphine) treatment. All animals were kept under standard conditions of light and temperature and fed with food and water ad libitum. The procedures involving animals were approved by the Ethics Committee of our institution, and followed the European Communities Council Directive 86/609/EEC.
VPA was intraperitoneally administered at an initial dose of 150 mg/kg by 3 h after surgery, and then a dose of 300 mg/Kg either every 24 h or every 12 h during the first week post-surgery, following by a dose of 300 mg/Kg every 24 h for the next two weeks. […]
Electrophysiological tests were performed at 14 and 28 days after operation. […] The H/M amplitude ratio was calculated. Motor evoked potentials (MEPs) were elicited by transcranial stimulation with two needle electrodes placed subcutaneously over the skull, delivering pulses of 0.1 ms duration and 25 mA intensity, and recorded from the tibialis anterior muscle (Garcia-Alias et al., 2003).

Assay [2] deals with P-eIF2α. Description: Western blot of phospho-eIF2α in spinal cord after contusion SCI. To be noted: whether higher in VPA-treated injured spinal cords than in vehicle-treated ones. As to the method:
as §1, with “The animals were maintained in a warm environment until full recovery, and received preventive antibiotic (amoxicyline) and analgesic (buprenorphine) treatment. All animals were kept under standard conditions of light and temperature and fed with food and water ad libitum. The procedures involving animals were approved by the Ethics Committee of our institution, and followed the European Communities Council Directive 86/609/EEC.” left out
Rats were re-anesthetised and decapitated at 3 dpo for sample preparation. […] After clearance, protein concentration was measured by the BCA method assay (BCA Protein Assay kit, Pierce). […] The membrane was visualized by enhanced chemiluminiscence (ECL) method and the images analyzed with Gene Snap and Gene Tools software, and Gene Genome apparatus (Syngene). […]
Background: Immunoblotting shows a protein as a band on a membrane.

For assay [3], the system named is oligodendrocytes, astrocytes. Description: Immunohistochemistry of glia (CC1/APC oligodendrocytes, GFAP astrocytes) after SCI. The protocol:
as §1, with “The procedures involving animals were approved by the Ethics Committee of our institution, and followed the European Communities Council Directive 86/609/EEC.” left out

Data on one molecule can be found in EP2181708A1, “Use of Valproate for reducing CHOP levels, particularly in a mammal having SCI” (Universitat Autonoma de Barcelona, priority 2008, dated 2010).

Consider `CCCC(CCC)C(=O)O` [VPA, 2-propylpentanoic acid], for which the “mean amplitudes of MEPs” value in assay [1] (14 and 28 days postlesion, vs group control) is “slightly higher”. Besides, the “mean H/M amplitude ratio” value was “about 9%” in assay [1] (14 days, injured rats) and 16% in assay [1] (28 days, control group 20%). Moreover, the “levels of P-eIF2α” value in assay [2] is recorded as “not”. For the same molecule, the “total GFAP immunoreactivity in astrocytes” value in assay [3] (35 dpo) is “no significant alterations”. Besides, the proportion of oligodendrocytes entry in assay [3] (CC1 antibody, 1 and 2 mm caudal to the epicentre, vs vehicle) is reported as “markedly increased”.
